Entries after “also recorded” stand apart in the source; their conditions may differ.
Legend:
[1] = system: Macrophomina phaseolina, Rhizoctonia solani, Pythium aphanidermatum and Sclerotinia sclerotiorum; assay: Antifungal activity of synthetic VOCs, plate assay; type: cell-based
Description: Antifungal activity of synthetic VOCs. The GC-MS identified VOCs produced by NYG5 were screened through literature for their any biological activity and the novel compound which were not tested so far were purchased as pure standard compound of the most representative VOCs from Hollan Moran Ltd., Israel. The pure synthetic compounds were tested against four different fungal pathogens (Macrophomina phaseolina, Rhizoctonia solani, […]) in small plastic petri plates. A freshly growing mycelial agar bid (4 mm) were placed in the center of PDA medium and one sterile paper disc (10 mm) were kept on the lid of the plate. After fungal inoculation, the tested compounds (10 μl for each) were placed on sterile filter disc and plates were double sealed with parafilm in inverted position having mycelium disc on the top side of the plate to check the direct effect of volatiles on mycelial growth. Three individual replicates were maintained for each treatment including control having sterile filter disc and solvent (70% ethanol) in which compounds were diluted. […] The plates were incubated at 25° C. and radial growth of fungal mycelial was measured at day interval until 3 days.

[2] = system: Arabidopsis thaliana; assay: Effect of 2,3-Hexanedione (C3) on A. thaliana growth, two-compartment plate; type: in vivo; conditions: 2 weeks of exposure
Description: Experimental set up for evaluation of 2,3-Hexanedione (C3) effect on Arabidopsis thaliana. Plant material and seed germination. A. thaliana (Ecotype Col-1) seeds were obtained from ARO Volcani center. The seeds were surface sterilized thrice with sterile distilled water and kept at 4° C. till 48 hours for stratification in dark on moist filter paper in petri plate. After two days of stratification the seeds were placed for germination on Murashige and Skoog (MS) medium with vitamins, 3% sucrose (30 g/1), and 0.03% phytagel (pH 5.7) for 3 days at 23° C. Effect of 2,3-Hexanedione (C3) on A. thaliana growth. Effect of 2,3-Hexanedione on A. thaliana development was evaluated in-vitro conditions in a two-compartment plate assay. Uniformly germinated seeds (5) were transplanted on MS medium in one side of compartment plate and another compartment was used to place the tested compound C3 similarly with other experiments. […] The control plants were maintained without any compound in two compartment petri plates. The plants were grown under 14-hour day/10-hour night cycles at 23° C. for 2 weeks and growth parameters were observed.

[3] = system: PR5; assay: Effect of C3 on PR gene expression in A. thaliana (qRT-PCR); type: in vivo, Arabidopsis thaliana; conditions: leaves, 7 days of exposure, no direct contact
Excerpt: (§1) Effect of 2,3-Hexanedione (C3) on PR gene expression in A. thaliana. An individual experiment was designed similarly as described above to check the effect of 2,3-Hexanedione on PR gene induction in A. thaliana. The plants were exposed with 2,3-Hexanedione in a two compartment plates for one week. After one week, leaves from individual plants of each replicate were pooled separately for RNA isolation. Total RNA was isolated from the leaf tissue of plant using RNA isolation kit (Nucleo spin RNA Plant, MACHEREY-NAGEL) according the manufacturer's instruction. Before starting the protocol, leaves were ground under liquid N2 and 100 mg of grinded tissue was used for RNA isolation. RNA quantification was done using Qubit analyzer. Purified RNA was used for cDNA synthesis using first strand Invitrogen cDNA synthesis kit according the manufacturer's instructions with […] of RNA. Synthesized cDNA was diluted to 1000 times and 10 ul aliquots were stored for gene expression analysis. The relative gene expression level of PR1, PR2, PR5 and Actin (as internal control) were quantified for C3 exposed and control plants. For qRT PCR a 20 ul reaction was programmed at 95° C. denaturation for 1 min, followed by 40 cycles of amplification at 95° C. for 5s, 60° C. for 30s, and 72° C. for 30s.

[4] = system: PR1 gene; assay: as above; type: in vivo, Arabidopsis thaliana; conditions: leaves, 7 days of exposure, no direct contact
Excerpt: as §1

[5] = system: PR2 gene; assay: as above; type: in vivo, Arabidopsis thaliana; conditions: leaves, 7 days of exposure, no direct contact
Excerpt: as §1

[6] = system: N. tabacum; assay: Effect of C3 on tobacco seedlings growth, two-compartment plate; type: in vivo, Nicotiana tabacum; conditions: 0.01 and 0.05 ppm, 14 days of growth
Excerpt: Seeds of N. tabacum were placed on MS agar media in a two-compartment plate with C3 in different concentrations on a sterile paper disk on the other half of the plate without direct contact between the compartments. In the control treatments, a sterile disk with ethanol was used.

[7] = system: Meloidogyne javanica larvae; assay: In-vitro nematicidal activity of 2,3-Hexanedione (C3), two-compartment plate; type: in vivo; conditions: 2 days of exposure, no direct contact
Excerpt: In-vitro nematicidal activity of 2, 3-Hexanedione (C3). Nematicidal efficacy of 2,3-Hexanedione had been tested against Meloidogyne javanica larvae. M. javanica eggs were extracted from the infected root of tomato Lycopersicon esculentum using standard protocol. The experiment was set up in a two-compartment plate to test the nematicidal activity of C3 compound against M. javanica larvae. One small glass vial was placed in one-half of compartment having 300 M. javanica larvae in 1000 of 0.001 M IVIES and sterile filter disc were kept in another compartment. The discs were spot with 10 μl of different concentration (0.05 and 0.5 ppm) of C3 compound and double sealed with parafilm. Each treatment had three independent replicates with control (without any compound only sterile disc). After 2 days of incubation M. javanica were carefully washed through 30 μm sieve and allowed to pass the sieve for 3 hours. All incubations were performed in the dark at 25±1° C. Survived M. javanica were counted under microscope.

[8] = system: Fusarium oxysporum spores; assay: Effect of 2,3-Hexanedione (C3) on fungal spores in liquid; type: cell-based
Description: Effect of 2, 3-Hexanedione (C3) on fungal spores in liquid. To test the effect of C3 on spore germination, fungal spores were harvested after 3 days growth of Fusarium oxysporum in Potato Dextrose Broth medium with continuous shaking at 25° C. To collect the spores, 3 days old grown mycelial in broth medium was filtered through sterilized glass wools and filtrate was centrifuged at 4000 rpm. The supernatant was discarded, and pellet was suspended in sterilized water to a dilution of 10^6 (spores/ml) and counted through hemocytometer. Spore inhibition test was performed in 1.5 ml Eppendorf tube having 100 μl of 5×10^5 spores and mixed with a final concentration of 1 ppm, 10 ppm and 100 ppm of C3 compound. The tubes were tightly closed and sealed with parafilm and incubated at 25° C. Spore germination was observed under compound microscope by placing 20 μl of solution droplet from control and treatment on glass slide. The germination was reconfirmed by growing the 20 μl of solution from tube on PDA simultaneously to check the mycelial growth. All experiments had three individual replicates and repeated twice having identical conditions.

[9] = system: Fusarium oxysporum f sp. Cubense; assay: C3 against Fusarium oxysporum f sp. Cubense in-vitro; type: cell-based
[10] = system: Macrophomina; assay: Effect of C3 on fungal morphology (actively growing mycelium); type: cell-based, Macrophomina phaseolina; conditions: C3 exposure, plate assay

Row | Compound | effect on mycelial growth ([1]; higher concentrations, 100 and 500 ppm) | effect on plant growth parameters ([2]; 0.005 ppm and 0.5 ppm) | effect on plant growth ([2]; 0.05 ppm) | PR5 at transcriptional level [3] | induction of PR1 gene [4] [fold] | upregulation of PR2 gene transcript [5] [fold] | plant biomass [6] | primary roots length [6] | larval viability ([7]; 0.05 ppm) | nematicidal activity ([7]; 0.5 ppm) [%] | germination of spores ([8]; 1 ppm in liquid, at least for 3 days) | growth of treated spores on PDA medium ([8]; C3-treated spores plated on PDA) | effect on fungi ([1]; 0.5 ppm) | effect of volatile exposure on all tested fungal pathogens ([1]; volatile exposure) | effect against the fungus ([9]; 50 ppm) | effect against the fungus ([9]; 200 ppm) | effect on actively-growing mycelia [10]
1 | CC(=O)CCC(C)C [Compound C2, 5-Methyl-2-hexanone] | inhibitory effect |  |  |  |  |  |  |  |  |  |  |  |  |  |  |  | 
2 | CCCC(=O)C(C)=O [Compound C3, 2,3-Hexanedione] |  | did not show any effect | enhanced the growth; also recorded: significant increase | no significant difference | 3 | 5 | significantly enhanced | longer | significantly reduced | 80 | no germination | no growth was observed | lethal | fungicidal effect | inhibitory effect | lethal effect | mycelium growth inhibition

Reference: US20230026437A1, “BACTERIA-ASSOCIATED VOLATILE ORGANIC COMPOUNDS” (THE STATE OF ISRAEL, MINISTRY OF AGRICULTURE & RURAL …, priority 2019, published 2023)
